In patent US6777420B2, “Heterocyclic antibacterial compounds” (Microbiotix, Inc., priority 2001, dated 2004):
Values after ≈ are worked out from the molar mass of the structure shown. Marks after values point to notes of the source that are not given here.

What was measured:
[1] = test system: S. aureus; test: MIC determination, S. aureus; type: cell-based, Staphylococcus aureus
Method: (§1) Minimal Inhibitory Concentration (MIC) determinations. […] Each drug is evaluated at five concentrations, with five data points at each dilution. MIC values (μg/ml) were determined against actively growing cultures in Heart-Brain Infusion (HBI) medium. Cell growth in cultures supplemented with a test compound was calculated as a percent of control at OD 600 nm after 16 to 18 hours at 37° C. This plate format conserves test compound and provides precise, quantitative data with low standard deviation determinations.

[2] = test system: S. aureus (Smith); test: MIC determination, S. aureus (Smith); type: cell-based, Staphylococcus aureus
Method: as §1

[3] = test system: MSSA108 (methicillin sensitive S. aureus strain); test: MIC determination, MSSA108; type: cell-based; settings: Staphylococcus aureus, read-out: MIC (μg/ml) MSSA108
Method: as §1
Compounds were also tested for antibacterial activity against certain clinically relevant strains, e.g., methicillin sensitive (MSSA) and methicillin resistant (MRSA) strains of Staphylococcus aureus.

[4] = test system: enterococci or staphylococci strains, including MRSA and VRE strains; test: In vivo activity of Compound 70 against intraperitoneal challenge, overall statement; settings: mice; administration from distant parenteral sites (i.e., iv, sc, or im)
Method: (§2) Using the same basic procedure as described above, the in vivo efficacy of Compound 70 was also evaluated at various doses in mice infected with S. aureaus (Smith), MRSA 1094, Enterococcus faecalis, or vancomycin-resistant Enterococcus faecalis strain VRE 700802. […] Negative controls were mice infected that received no treatment. Mucin was employed as an adjuvant to facilitate bacterial infection in mice, where indicated.

[5] = test system: Staphylococcus aureus (Smith strain); test: Protection of mice from lethal intraperitoneal infection, compound given intraperitoneally; type: in vivo; settings: 15 minutes after infection
Method: FIG. 1B is a bar graph showing number of survivors in each group of five mice at 24 hours after intraperitoneal infection with 1×10^8 colony forming units (CFU) of Staphylococcus aureus (Smith strain) and followed 15 minutes post infection by administration of Compound 2 at a dose of 0 (Vehicle Control), 1, 3, and 10 mg of compound per kg of body weight. Vancomycin at a dose of 10 mg/kg of body weight served as a positive control for antibiotic activity. See text for details.
FIG. 2B is a bar graph showing number of survivors of a group of five mice at 24 hours after intraperitoneal infection with Staphylococcus aureus (Smith strain) as in FIG. 1B, except that Compound 10 was administered to each animal at 0, 0.1, 0.3, 1.0, 3.0, and 10 mg/kg body weight at 15 minutes post infection. Controls were the same as in FIG. 1B. See text for details.
FIG. 3B is a bar graph showing number of survivors in each group of five mice at 24 hours after intraperitoneal infection with Staphylococcus aureus (Smith strain) as in FIG. 1, except that 15 minutes after infection, the mice in each group received a dose of 0.5 mg/kg of body weight of compound 10, 4, 5, 6, 7, 8, or 12. Controls were the same as in FIG. 1. See text for details.
(§3) Swiss Webster mice, ca. 20 g each, were infected with Staphylococcus aureus (Smith strain) by the intraperitoneal route. Test compounds (2, 4, 5, 6, 7, 8, 10, 12) were dissolved in 10% dimethylsulfoxide in peanut oil to a concentration of 2 mg/ml. Vancomycin was used as positive control drug (i.e., protection from lethal infection). Fifteen minutes after infection, test compounds, vancomycin, or vehicle alone were given intraperitoneally to groups of five mice each. Animals were monitored for three days, and the number of mice surviving was tabulated for each treatment.

[6] = target: T1, B. subtilis Pol IIIC (Bacillus subtilis, UniProt P13267); test: Polymerase IIIC (Pol IIIC) assay, determination of Ki values; type: biochemical; settings: Ki = concentration that reduces control polymerase activity by 50 percent
T1 construct: made in house
Method: Polymerase IIIC (Pol IIIC) assay. DNA polymerase activity (or inhibition thereof) was measured in a 96-well plate format. B. subtilis Pol IIIC was isolated as described by Hammond and Brown (Protein Expr. Purif., 3: 65-70 (1992)). Each 25 μl assay contained 30 mM Tris, pH 7.5, 10 mM magnesium acetate, 4 mM dithiothreitol, 20% glycerol, with 25 μM dATP, dCTP, dGTP and 10 μM dTTP (3H-labelled at 1.44 Ci/mmole) and 0.4 mg/ml activated calf thymus DNA as substrates, as described previously (see Barnes et al, op. cit). Assays were initiated by the addition of 0.025 to 0.06 units of enzyme 1 unit is the amount required to incorporate 250 pmoles of [^3H] dTMP in a standard assay), incubated for 10 minutes at 30° C. and terminated by the addition of 200 μl of cold 10% trichloroacetic acid (TCA), 10 mM sodium pyrophosphate. Precipitated labeled DNA was collected on glass fiber filter plates, washed, dried, and counted in a liquid scintillation counter.
Determination of Ki values. DNA polymerase activity was measured in a 96-well plate format in the absence of dGTP or dATP, depending on the structure of the test compound. Each 25 μl assay contained 30 mM Tris, pH 7.5, 10 mM magnesium acetate, 4 mM dithiothreitol, 20% glycerol, with 25 μM dATP, dCTP, and 10 μM dTTP (3H-labelled at 1.44 Ci/mmole) and 0.4 mg/ml activated calf thymus DNA as substrates, as described previously. To each well were added 2 μl of compound solution to give final concentrations ranging from 20-0.027 μg/ml in the assay. Assays were initiated by the addition of 0.025 to 0.06 units of enzyme (1 unit is the amount required to incorporate 250 pmoles of [^3H] dTMP in a standard assay), incubated for 10 minutes at 30° C. and terminated by the addition of 200 μl of cold 10% trichloroacetic acid, 10 mM sodium pyrophosphate. Precipitated labeled DNA was collected on glass fiber filter plates, washed, dried, and counted in a liquid scintillation counter. Ki is the concentration of test compound that reduces the control polymerase mc activity by 50 percent.

[7] = test system: B. subtilis; test: MIC determination, B. subtilis; type: cell-based, Bacillus subtilis
Method: as §1

[8] = test system: E. fecalis; test: MIC determination, E. fecalis; type: cell-based, Enterococcus fecalis
Method: as §1, with “C.” for “C. This plate format conserves test compound and provides precise, quantitative data with low standard deviation determinations.”

[9] = test system: E. fecium; test: MIC determination, E. fecium; type: cell-based, Enterococcus fecium
Method: as §1, with “C.” for “C. This plate format conserves test compound and provides precise, quantitative data with low standard deviation determinations.”

[10] = test system: E. coli; test: MIC determination, E. coli; type: cell-based, Escherichia coli
Method: as §1

[11] = test system: vancomycin-resistant Enterococcus faecalis strain VRE 700802; test: In vivo efficacy of Compound 70 in mouse model, VRE 700802; settings: mice, 3 × 10^8 CFU/mouse +5% Mucin; positive control, 100 mg/kg, t = 0
Method: as §3, §2

[12] = test system: Enterococcus faecalis (ATCC 29212); test: In vivo efficacy of Compound 70 in mouse model, Enterococcus faecalis; settings: mice, 3 × 10^7 CFU/mouse +5% Mucin; positive control, 100 mg/kg, t = 0
Method: as §3, §2

[13] = Swiss Webster mice, dosage range 1-10 mg/kg body weight
[14] = HBI medium, 16 to 18 hours at 37° C.

T1 sequence (P13267 whole entry): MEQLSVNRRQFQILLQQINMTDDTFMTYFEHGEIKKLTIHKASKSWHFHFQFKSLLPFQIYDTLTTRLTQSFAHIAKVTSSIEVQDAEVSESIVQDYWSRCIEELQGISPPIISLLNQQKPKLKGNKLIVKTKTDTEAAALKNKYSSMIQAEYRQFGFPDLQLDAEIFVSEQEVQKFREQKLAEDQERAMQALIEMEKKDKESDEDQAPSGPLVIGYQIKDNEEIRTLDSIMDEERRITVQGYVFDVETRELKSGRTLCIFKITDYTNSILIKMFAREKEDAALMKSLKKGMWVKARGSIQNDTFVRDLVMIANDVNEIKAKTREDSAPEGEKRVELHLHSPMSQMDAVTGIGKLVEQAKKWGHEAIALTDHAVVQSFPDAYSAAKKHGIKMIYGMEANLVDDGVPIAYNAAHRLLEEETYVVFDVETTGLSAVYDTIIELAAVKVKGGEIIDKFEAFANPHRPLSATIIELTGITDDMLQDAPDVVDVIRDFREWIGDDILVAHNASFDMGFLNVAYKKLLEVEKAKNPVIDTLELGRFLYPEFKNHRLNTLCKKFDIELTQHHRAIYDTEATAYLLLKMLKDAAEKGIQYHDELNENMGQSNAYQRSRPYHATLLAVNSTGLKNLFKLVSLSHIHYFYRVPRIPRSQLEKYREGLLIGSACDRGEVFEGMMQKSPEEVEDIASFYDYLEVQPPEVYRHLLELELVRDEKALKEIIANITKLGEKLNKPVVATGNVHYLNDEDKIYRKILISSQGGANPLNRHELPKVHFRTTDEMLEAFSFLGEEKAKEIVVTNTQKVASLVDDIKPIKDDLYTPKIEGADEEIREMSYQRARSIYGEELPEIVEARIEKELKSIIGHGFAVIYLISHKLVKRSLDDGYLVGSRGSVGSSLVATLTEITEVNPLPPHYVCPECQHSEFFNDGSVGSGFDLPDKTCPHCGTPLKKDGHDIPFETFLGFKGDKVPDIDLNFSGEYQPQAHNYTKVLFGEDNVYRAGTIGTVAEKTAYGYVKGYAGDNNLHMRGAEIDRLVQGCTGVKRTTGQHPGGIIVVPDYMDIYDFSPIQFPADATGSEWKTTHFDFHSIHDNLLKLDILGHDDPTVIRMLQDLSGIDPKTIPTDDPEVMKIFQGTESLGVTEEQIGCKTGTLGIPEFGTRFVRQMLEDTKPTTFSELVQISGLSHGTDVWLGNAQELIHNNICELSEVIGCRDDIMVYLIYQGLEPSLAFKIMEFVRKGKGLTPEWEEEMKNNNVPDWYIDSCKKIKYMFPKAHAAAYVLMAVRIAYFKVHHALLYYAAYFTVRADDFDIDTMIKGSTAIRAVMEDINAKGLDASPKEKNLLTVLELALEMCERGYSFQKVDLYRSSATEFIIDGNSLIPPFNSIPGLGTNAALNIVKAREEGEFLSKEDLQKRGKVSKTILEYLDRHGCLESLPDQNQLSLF

CCc1cc(Nc2cc(=O)n(CCCCN3CCN(c4cc5c(cc4F)c(=O)c(C(=O)O)cn5CC)CC3)c(=O)[nH]2)ccc1C [Compound 1, 3-{4-[1-(1-ethyl-3-carboxy-4-oxo-6-fluoro-7-quinolyl)-4-piperazinyl]butyl}-6-(3-ethyl-4-methylanilino)uracil]
MIC ([1]; Staphylococcus aureus, table of clinically relevant strains, read-out: MIC (μg/ml) S. aureus): 0.313 µg/mL (≈ 0.506 µM)
MIC ([2]; Staphylococcus aureus, table of clinically relevant strains, read-out: MIC (μg/ml) S. aureus (Smith)): 0.313 µg/mL (≈ 0.506 µM)
MIC [3]: 0.313 µg/mL (≈ 0.506 µM)

CCc1cc(Nc2cc(=O)n(CCCCN3CCN(c4c(F)cc5c(=O)c(C(=O)O)cn(C6CC6)c5c4F)CC3C)c(=O)[nH]2)ccc1C (centres unmarked) [Compound 70, 3-{4-[1-(1-cyclopropyl-3-carboxy-4-oxo-6,8-difluoro-7-quinolyl)-4-(3-methylpiperazinyl)]butyl}-6-(3-ethyl-4-methylanilino)uracil]
activity against intraperitoneal challenge [4]: dose-related activity

CCc1cc(Nc2cc(=O)n(CCCCN3CCN(c4cc5c(cc4F)c(=O)c(C(=O)O)cn5C4CC4)CC3)c(=O)[nH]2)ccc1C [Compound 2, 3-{4-[1-(1-cyclopropyl-3-carboxy-4-oxo-6-fluoro-7-quinolyl)-4-piperazinyl]butyl}-6-(3-ethyl-4-methylanilino)uracil]
protection of infected mice (group of five) [5, 13]: protection was afforded all five infected mice

CCc1cc(Nc2ccc(NC(=O)N3CCN(c4cc5c(cc4F)c(=O)c(C(=O)O)cn5CC)CC3)c(=O)[nH]2)ccc1C [Compound 77, 3-{[1-(1-ethyl-3-carboxy-4-oxo-6-fluoro-7-quinolyl)-4-piperazinyl]carboxamido}-6-(3-ethyl-4-methylanilino)-2-pyridone]
Ki ([6]; second table): 8 µM

3-{5-[1-(1-ethyl-3-carboxy-4-oxo-6,8-difluoro-7-quinolyl)-3-(1,3-diazabicyclononyl)]pentyl}-6-(3-ethyl-4-methylanilino)uracil [Compound 88]
MIC (μg/ml) B. subtilis ([7]; second table): 0.625 µg/mL
MIC (μg/ml) S. aureus ([1]; second table): 1.25 µg/mL
MIC (μg/ml) S. a. (Smith) ([2]; second table): 1.25 µg/mL
MIC (μg/ml) E. fecalis ([8]; second table): 2.5 µg/mL
MIC (μg/ml) E. fecium ([9]; second table): 5 µg/mL
MIC (μg/ml) E. coil ([10]; second table): >20 µg/mL

O=C(O)c1cn(C2CC2)c2cc(N3CCNCC3)c(F)cc2c1=O [cflxn, ciprofloxacin]
Ki (μM) Pol IIIC [6]: inactive
% Survival at 72 hours [11]: 90% (9/10)**

CCn1cc(C(=O)O)c(=O)c2cc(F)c(N3CCNCC3)cc21 [nflxn, norfloxacin]
Ki (μM) Pol IIIC [6]: inactive

CCc1cc(Nc2cc(=O)n(CCCCO)c(=O)[nH]2)ccc1C [HB-EMAU, reference compound]
Ki [6]: 0.066 µM
MIC (μg/ml) B. subtilis [7, 14]: 1.25 µg/mL (≈ 3.94 µM)
MIC (μg/ml) S. aureus [1, 14]: 10 µg/mL (≈ 31.5 µM)
MIC (μg/ml) S. aureus (Smith) [2, 14]: 5 µg/mL (≈ 15.8 µM)
MIC (μg/ml) E. fecalis [8, 14]: 5 µg/mL (≈ 15.8 µM)
MIC (μg/ml) E. fecium [9, 14]: 5 µg/mL (≈ 15.8 µM)
MIC (μg/ml) E. coli [10, 14]: >80 µg/mL

CN[C@H](CC(C)C)C(=O)N[C@H]1C(=O)N[C@@H](CC(N)=O)C(=O)N[C@H]2C(=O)N[C@H]3C(=O)N[C@H](C(=O)N[C@H](C(=O)O)c4cc(O)cc(O)c4-c4cc3ccc4O)[C@H](O)c3ccc(c(Cl)c3)Oc3cc2cc(c3O[C@@H]2O[C@H](CO)[C@@H](O)[C@H](O)[C@H]2O[C@H]2C[C@](C)(N)[C@H](O)[C@H](C)O2)Oc2ccc(cc2Cl)[C@H]1O [vancomycin]
% Survival at 72 hours [12]: 100% (10/10)**

CCc1cc(Nc2cc(=O)n(CCCCN3CCN(c4cc5c(cc4F)c(=O)c(C(=O)O)cn5C4CC4)CC3)c(=O)[nH]2)ccc1C.CS(=O)(=O)O [Compound 10, 3-{4-[1-(1-cyclopropyl-3-carboxy-4-oxo-6-fluoro-7-quinolyl)-4-piperazinyl]butyl}-6-(3-ethyl-4-methylanilino)uracil methanesulfonate]
infected mice protected from death (group of five) ([5]; dose 0.3 mg per kg body weight): one of five
protection of infected mice (group of five) ([5]; dose of 1 mg/kg or higher): complete protection
protection of infected mice (group of five) [5, 13]: provided protection in the same dosage range as Compound 2
